Assay results taken from patent publication US8143254B2, “Methods for modulating ion channels” (Cornell Research Foundation, Inc., priority 2005, dated 2012).
Changes are numbered by the printed parent chain. “And” between values parts separate entries of the source, which are not always exact repeats. Equal values may be shown once.

Legend:
Format in all cases: cell-based
[1] = target: T1, Kv2.1 channels expressed in CHO cells (Rattus norvegicus, UniProt P15387); assay: Whole-cell voltage clamp of CHO cells transfected with Kv2.1; conditions: 20 mM, 0 mV
T1 construct: expressed in transfected cells; host or cells: CHO cells (transient, co-transfected with GFP plasmid)
T1 sequence (P15387 1-857): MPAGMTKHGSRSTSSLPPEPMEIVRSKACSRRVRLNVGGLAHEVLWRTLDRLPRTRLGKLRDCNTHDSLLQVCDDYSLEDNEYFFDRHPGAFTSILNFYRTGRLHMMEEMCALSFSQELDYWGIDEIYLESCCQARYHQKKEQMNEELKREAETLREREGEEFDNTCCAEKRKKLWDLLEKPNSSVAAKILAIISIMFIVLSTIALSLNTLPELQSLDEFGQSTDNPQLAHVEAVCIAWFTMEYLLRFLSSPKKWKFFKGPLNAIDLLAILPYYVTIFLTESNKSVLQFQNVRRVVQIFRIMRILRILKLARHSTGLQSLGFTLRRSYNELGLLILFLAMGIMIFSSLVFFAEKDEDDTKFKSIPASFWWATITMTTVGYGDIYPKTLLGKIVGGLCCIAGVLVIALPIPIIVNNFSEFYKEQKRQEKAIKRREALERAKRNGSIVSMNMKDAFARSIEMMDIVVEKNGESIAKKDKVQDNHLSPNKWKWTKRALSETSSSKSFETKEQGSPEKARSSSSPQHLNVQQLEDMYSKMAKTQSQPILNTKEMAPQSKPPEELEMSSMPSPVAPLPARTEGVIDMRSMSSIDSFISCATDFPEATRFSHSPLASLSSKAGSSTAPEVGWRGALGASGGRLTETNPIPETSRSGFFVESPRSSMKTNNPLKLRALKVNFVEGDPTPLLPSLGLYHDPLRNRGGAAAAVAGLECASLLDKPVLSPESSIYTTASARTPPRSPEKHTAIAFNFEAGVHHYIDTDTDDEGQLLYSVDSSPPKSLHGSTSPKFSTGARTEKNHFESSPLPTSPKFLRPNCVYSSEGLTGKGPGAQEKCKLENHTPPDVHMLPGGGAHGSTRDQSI
Text: (§1) Kv2.1 mutants were constructed using the QuickChange Multi Site-Directed Mutagenesis Kit (Stratagene, La Jolla, Calif.). Mutant Kv2.1 genes (in the pGA1 oocyte expression vector for oocyte expression) were sequenced in their entirety to confirm appropriate mutations and check for inadvertent mutations, and then subcloned into a wild-type pGA1 backbone. For oocyte expression, Kv3.4 was in pBF1, Kv4.2 was in pRAT. cRNA transcripts were produced from SacII-linearized (Kv2.1), Mlullinearized (Kv3.4) and Not1-linearized (Kv4.2) DNA templates using the T3 (Kv2.1), SP6 (Kv3.4) and T7 (Kv4.2) mMessage mMachine kits (Ambion, Austin, Tex.). cRNA was quantified by spectrophotometry and its size integrity verified by gel electophoresis. Defolliculated stage V and VI Xenopus laevis oocytes (purchased from Nasco, Grand Island, N.Y.) were injected with 5 ng of cRNA encoding Kv2.1, Kv3.4 or Kv4.2. Chinese Hamster Ovary (CHO) cells were transfected with 0.25 μg Kv2.1 cDNA, 2 μg blank plasmid and 2 μg Green fluorescent Protein in pBOB using Supetfect transfection reagent (Qiagen) 24 hours before whole-cell voltage clamp studies.
For whole-cell voltage clamp studies of CHO cells, bath solution was (in mM): 135 NaCl, 5 KCl, 1.2 MgCl2, 5 HEPES, 2.5 CaCl2, and 10 D-glucose, pH 7.4. Pipettes were 3-5 MQ resistance when filled with intracellular solution containing (in mM): 10 NaCl, 117 KCl, 2 MgCl2, 11 HEPES, 11 EGTA, and 1 CaCl2, pH 7.2. For experiments with extracellular drug application, cells were held at −80 mV and subjected to 2 sec test pulses […] every 30 s. Whole-cell patch clamp recordings were performed at 22-25° C. using an IX50 inverted microscope equipped with epifluorescence optics for GFP detection (Olympus), a Multiclamp 700 A Amplifier, a Digidata 1300 Analogue/Digital converter and pClamp9 software (Axon Instruments). Leak and liquid junction potentials (<4 mV) were not compensated for when generating current-voltage relationships. For intracellular drug application, the tip of the recording electrode was first filled with drug-free intracellular solution, the electrode was then back-filled with intracellular solution containing TEA (20 mM), TA279 (5 mM) or JC638.2α (0.5 mM). Cells were held at −80 mV and subjected to 2 sec test pulses from −60 mV to +60 mV in 10 mV increments, followed by a 1 sec tail pulse to −30 mV. After an initial recording which we denoted time 0, a second recording was performed after 5 minutes.
Data analysis: Current-voltage relationships were obtained by measuring peak current during depolarizing pulses. Inhibition constants for DABCO blockers were calculated after generating a dose response curve by fitting with a logistic dose-response function y=A2+[A1−A2/1+(x/x0)^p], where A1 is the maximum response plateau, A2 is the minimum response plateau, x is drug concentrator, x0 is the IC50, and p the Hill slope. Data analysis was performed using CLAMPFIT 9 (Axon Instruments, Foster City, Calif.) and tabulated in Excel 5.0. Graphs were generated using Origin 6.1. Data are expressed as mean±SEM, with n specifying the number of independent experiments. Statistical significance was assessed by one-way ANOVA with p<0.05 being indicative of significance.

[2] = target: T2, Kv2.1-K356C (Rattus norvegicus, UniProt P15387, K360C); assay: Cysteine protection experiments, K356C variant of Kv2.1 in oocytes; conditions: K356C mutant
T2 construct: expressed in transfected cells; host or cells: Xenopus laevis oocytes (cRNA from pGA1)
T2 sequence (P15387 1-857 K360C): T1 sequence (P15387 1-857) with K360C
Text: as §1
(§2) Whole-cell two-electrode voltage-clamp (TEVC) recordings were performed on X laevis oocytes expressing cloned Kv2.1, Kv3.4 or Kv4.2 using a Warner OC-725C amplifier and pClamp9 (Axon Instruments, Foster City, Calif.) software. Oocytes were bathed in a small-volume Warner oocyte bath and viewed with a Fisher dissection microscope. Bath solution for whole-cell oocyte recordings was (in mM): 96 NaCl, 4 KCl, 0.7 MgCl2, 1 CaCl2, 10 HEPES (pH 7.4); whole-cell oocyte TEVC pipettes were of 0.2-2 M resistance when filled with 3 M KCl. Experiments were performed 24-48 hours after cRNA injection. For assessment of current-voltage relationships in the absence or presence of dabco derivatives, oocytes were held at −80 mV, stepped for 2 seconds at voltages between −80 mV and +60 mV in 20 mV steps (Kv2.1) or between −80 and +50 mV in 10 mV steps (Kv3.4), then held for 500 ms at −40 mV before returning to the holding potential. For assessment of block during wash-in of dabco derivatives at a single voltage, oocytes were held at −80 mV, and repetitively stepped to 0 mV for 2 s with an interpulse interval of 10 s or 60 s as indicated. A range of concentrations of dabco or dabco derivatives were washed in via the bath solution during repetitive single-voltage pulses (after an initial period of 5 pulses with control solution to ensure current stabilization) until equilibrium block was achieved, to establish dose-responses. Inhibited currents are compared to the current at the end of 5-pulse control period, thus some bar graphs show ‘control’ current values slightly less than 1, and with an error bar, to show how much currents deviate in the absence of drug. Washout was performed after the highest concentration of blocker was washed in. In cases where washout was achieved, only those recordings in which current returned to within 10% of original current level were used for construction of dose-response curves. For cysteine protection experiments using the K356C variant of Kv2.1, a dabco derivative (JC638.2a) was washed in to equilibrium block, followed by wash-in of a solution containing both JC638.2a and MTSET until no further changes in current were seen; following this the solution was washed out with standard bath solution. As controls for this protection analysis, JC638.2a or MTSET were washed in alone until equilibrium block, then washed out.

[3] = target: T3, Δ1-28 Kv3.4 channels (Homo sapiens, UniProt Q03721); assay: TEVC current-voltage relationship of Δ1-28 Kv3.4 in Xenopus oocytes; conditions: 1 mM
T3 construct: expressed in transfected cells; host or cells: Xenopus oocytes (cRNA injection)
T3 sequence (Q03721 29-635): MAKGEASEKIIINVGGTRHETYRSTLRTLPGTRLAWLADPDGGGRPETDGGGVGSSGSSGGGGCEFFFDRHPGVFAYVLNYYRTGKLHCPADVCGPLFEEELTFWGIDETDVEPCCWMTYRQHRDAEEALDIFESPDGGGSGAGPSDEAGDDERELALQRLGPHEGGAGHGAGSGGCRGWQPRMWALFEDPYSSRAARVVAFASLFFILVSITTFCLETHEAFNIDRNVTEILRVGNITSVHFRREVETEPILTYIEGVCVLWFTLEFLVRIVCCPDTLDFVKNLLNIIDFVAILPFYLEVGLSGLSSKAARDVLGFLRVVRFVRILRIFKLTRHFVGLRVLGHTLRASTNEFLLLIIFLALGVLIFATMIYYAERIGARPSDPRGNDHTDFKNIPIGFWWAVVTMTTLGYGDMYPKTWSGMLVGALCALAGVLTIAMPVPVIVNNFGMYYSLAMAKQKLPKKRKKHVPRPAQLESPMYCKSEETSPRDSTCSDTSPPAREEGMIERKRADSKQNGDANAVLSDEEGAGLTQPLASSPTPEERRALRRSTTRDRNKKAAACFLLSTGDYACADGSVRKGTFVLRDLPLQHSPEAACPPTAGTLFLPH
Description: FIG. 6. Opening and block of Kv3.4 by two didabco compounds show voltage-dependency. Normalized I/V relationship for Δ1-28 Kv3.4 currents in oocytes in the absence (control) or presence as indicated of 1 mM JC279.3a or JC638.2a. Peak currents during 2 s pulses to voltages between −80 and +60 mV (protocol upper left insert) were recorded, before and after drug was washed in during successive 0.1 Hz, 2 s pulses from −80 to 0 mV until equilibrium block or opening was observed. Points are means from n=3-16 oocytes; error bars indicate SEM.
as §2, with “In cases where washout was achieved, only those recordings in which current returned to within 10% of original current level were used for construction of dose-response curves. For cysteine protection experiments using the K356C variant of Kv2.1, a dabco derivative (JC638.2a) was washed in to equilibrium block, followed by wash-in of a solution containing both JC638.2a and MTSET until no further changes in current were seen; following this the solution was washed out with standard bath solution. As controls for this protection analysis, JC638.2a or MTSET were washed in alone until equilibrium block, then washed out.” left out
To investigate the mechanism of Kv channel block or opening by didabco compounds, the current-voltage relationship (I/V curve) of Δ1-28 Kv3.4 channels expressed in Xenopus oocytes was assessed using TEVC recording in the absence and presence of a didabco opener (JC279.3a, the 10 CH2-group didabco from FIG. 3) or a didabco blocker (JC638.2a, the para didabco from FIG. 4).

SMILES: CC[N+](CC)(CC)CC [TEA, tetraethylammonium, reference compound]
- block on intracellular application ([1]; after 5 minutes): ~88% and 80%
- block on intracellular application ([1]; time 0): ~85% and 70%

SMILES: C[N+](C)(C)CCSS(C)(=O)=O [MTSET, reference compound]
- current inhibition, administered alone [2]: 56±3%

SMILES: C(CCCCC[N+]12CCN(CC1)CC2)CCCC[N+]12CCN(CC1)CC2 [JC279.3a, 1,10-[bis(4-aza-1-azoniabicyclo[2.2.2]octanyl)]decane]
- block or opening of Δ1-28 Kv3.4 [3]: opener
- voltage dependence of block or opening of Kv3.4 ([3]; attenuated at more depolarized voltages): voltage-dependent
